Reference: patent publication US9963467B2, “Boronic acid derivatives and therapeutic uses thereof” (Rempex Pharmaceuticals, Inc., priority 2014, dated 2018)

Key:
KP1005 (CTX-M-14) [1] = assay: Aztreonam potentiation (MPC@4), KP1005; type: cell-based; settings: BLI with aztreonam at 4 μg/mL
ec308 (SHV-5) = assay: Tigemonam potentiation (MPC@4), ec308; type: cell-based
CTX-M-14 = CTX-M-14 (Escherichia coli, UniProt Q9L5C7); assay: Ki, nitrocefin cleavage by purified enzyme, CTX-M-14; type: biochemical; settings: nitrocefin reporter substrate; read-out: Ki (CTX-M-14, NCF)
How it was run: (§1)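 Purified enzyme was preincubated with a range of inhibitor concentrations in reaction buffer for 10 min at room temperature. Nitrocefin was then added and its cleavage followed at 490 nm every 10 sec for 10 min.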

KPC-2 = KPC-2 (Klebsiella pneumoniae, UniProt Q9F663); assay: Ki, nitrocefin cleavage by purified enzyme, KPC-2; type: biochemical; settings: nitrocefin reporter substrate; read-out: Ki (KPC-2, NCF)
How it was run: as §1

KP1004 (KPC-2) [2] = assay: Biapenem potentiation (MPC@1), KP1004; settings: BLI with biapenem at 1 μg/mL
ec302 (TEM-10) [3] = assay: Aztreonam potentiation (MPC@4), ec302; type: cell-based; settings: BLI with aztreonam at 4 μg/mL
EC1010 (CMY-6) [4] = assay: organism not typed; type: cell-based
KP1009 (CTX-M-15) [5] = assay: Tigemonam potentiation (MPC@4), KP1009; type: cell-based; settings: BLI with tigemonam at 4 μg/mL
KP1005 (CTX-M-14) [6] = assay: Tigemonam potentiation (MPC@4), KP1005; type: cell-based; settings: BLI with tigemonam at 4 μg/mL
KP1009 (CTX-M-15) [7] = assay: organism not typed; type: cell-based
KP1086 (OXA-48) = assay: Biapenem potentiation (MPC@1), KP1086; settings: BLI with biapenem at 1 μg/mL
OXA-48 = OXA-48 (Klebsiella pneumoniae, UniProt Q6XEC0); assay: Ki, nitrocefin cleavage by purified enzyme, OXA-48; type: biochemical; settings: nitrocefin reporter substrate; read-out: Ki (OXA-48, NCF)
How it was run: as §1

Pa AmpC = Pa AmpC (Pseudomonas aeruginosa, UniProt P24735); assay: Ki, nitrocefin cleavage by purified enzyme, Pa AmpC; type: biochemical; settings: nitrocefin reporter substrate; read-out: Ki (Pa AmpC, NCF)
How it was run: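 With nitrocefin serving as reporter, cleavage by purified enzyme was tracked at 490 nm every 10 sec for 10 min, following 10 min preincubation at room temperature with inhibitor at various concentrations, to obtain Ki.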

P99 = P99 (Enterobacter cloacae, UniProt P05364); assay: Ki, nitrocefin cleavage by purified enzyme, P99; type: biochemical; settings: nitrocefin reporter substrate; read-out: Ki (P99, NCF)
How it was run: as §1

ECL1002 [8] = assay: Tigemonam potentiation (MPC@4), ECL1002; type: cell-based; settings: BLI with tigemonam at 4 μg/mL
ec302 (TEM-10) [9] = assay: Tigemonam potentiation (MPC@4), ec302; type: cell-based
KP1010 (SHV-12) = assay: Tigemonam potentiation (MPC@4), KP1010; type: cell-based
SHV-12 = SHV-12 (Klebsiella pneumoniae, UniProt P0AD64, E235K/G234S/L31Q); assay: Ki, nitrocefin cleavage by purified enzyme, SHV-12; type: biochemical; settings: nitrocefin reporter substrate; read-out: Ki (SHV-12, NCF)
How it was run: as §1

ECL1002 [10] = assay: Aztreonam potentiation (MPC@4), ECL1002; type: cell-based; settings: BLI with aztreonam at 4 μg/mL
EC1010 (CMY-6) [11] = assay: Tigemonam potentiation (MPC@4), EC1010; type: cell-based; settings: BLI with tigemonam at 4 μg/mL
KP1004 (KPC-2) [12] = assay: Aztreonam potentiation (MPC@4), KP1004; type: cell-based; settings: BLI with aztreonam at 4 μg/mL

Chain of KPC-2 (Q9F663 25-293, looked up, species assumed): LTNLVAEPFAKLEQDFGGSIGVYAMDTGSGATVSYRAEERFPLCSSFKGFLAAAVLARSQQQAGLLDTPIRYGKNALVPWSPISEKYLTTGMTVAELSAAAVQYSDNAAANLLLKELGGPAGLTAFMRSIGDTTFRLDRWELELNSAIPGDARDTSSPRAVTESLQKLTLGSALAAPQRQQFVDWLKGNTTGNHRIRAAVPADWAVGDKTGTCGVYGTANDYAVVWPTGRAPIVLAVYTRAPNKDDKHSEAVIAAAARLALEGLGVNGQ
Chain of Pa AmpC (P24735 27-397): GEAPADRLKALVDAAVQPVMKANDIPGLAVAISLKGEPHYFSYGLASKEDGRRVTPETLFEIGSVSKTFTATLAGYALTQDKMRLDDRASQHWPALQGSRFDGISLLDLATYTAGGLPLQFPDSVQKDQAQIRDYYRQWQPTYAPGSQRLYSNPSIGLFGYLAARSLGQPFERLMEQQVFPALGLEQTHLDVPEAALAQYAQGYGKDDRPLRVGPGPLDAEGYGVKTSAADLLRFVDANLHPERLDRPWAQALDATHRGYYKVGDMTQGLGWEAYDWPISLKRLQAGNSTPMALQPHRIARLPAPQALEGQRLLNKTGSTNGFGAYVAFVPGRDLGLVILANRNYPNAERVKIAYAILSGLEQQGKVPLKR
Chain of OXA-48 (Q6XEC0 23-265, looked up, species assumed): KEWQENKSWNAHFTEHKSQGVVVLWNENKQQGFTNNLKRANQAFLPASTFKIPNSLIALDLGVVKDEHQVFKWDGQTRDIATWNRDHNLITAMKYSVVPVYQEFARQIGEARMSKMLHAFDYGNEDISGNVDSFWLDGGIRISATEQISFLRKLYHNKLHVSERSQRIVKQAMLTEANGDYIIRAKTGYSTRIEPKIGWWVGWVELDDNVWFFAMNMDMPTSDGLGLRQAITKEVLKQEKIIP
Chain of SHV-12 (P0AD64 22-286 L31Q/G234S/E235K): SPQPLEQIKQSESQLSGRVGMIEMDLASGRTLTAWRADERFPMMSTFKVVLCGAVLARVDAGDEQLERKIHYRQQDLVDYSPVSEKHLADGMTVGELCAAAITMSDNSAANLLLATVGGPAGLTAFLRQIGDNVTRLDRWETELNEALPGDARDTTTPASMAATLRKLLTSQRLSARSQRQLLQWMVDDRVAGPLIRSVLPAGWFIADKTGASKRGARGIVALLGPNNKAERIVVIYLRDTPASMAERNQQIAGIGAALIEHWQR
Chain of P99 (P05364 21-381): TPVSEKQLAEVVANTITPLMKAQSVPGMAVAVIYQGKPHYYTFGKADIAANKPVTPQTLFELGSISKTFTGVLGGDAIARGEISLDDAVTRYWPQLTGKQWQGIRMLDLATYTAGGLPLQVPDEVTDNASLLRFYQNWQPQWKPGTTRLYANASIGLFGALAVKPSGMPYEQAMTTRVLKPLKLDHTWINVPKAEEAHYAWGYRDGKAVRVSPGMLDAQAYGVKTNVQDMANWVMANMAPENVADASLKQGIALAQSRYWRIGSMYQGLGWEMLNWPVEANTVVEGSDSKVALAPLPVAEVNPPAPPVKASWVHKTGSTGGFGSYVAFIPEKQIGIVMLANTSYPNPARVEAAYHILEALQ
Chain of CTX-M-14 (Q9L5C7 29-291): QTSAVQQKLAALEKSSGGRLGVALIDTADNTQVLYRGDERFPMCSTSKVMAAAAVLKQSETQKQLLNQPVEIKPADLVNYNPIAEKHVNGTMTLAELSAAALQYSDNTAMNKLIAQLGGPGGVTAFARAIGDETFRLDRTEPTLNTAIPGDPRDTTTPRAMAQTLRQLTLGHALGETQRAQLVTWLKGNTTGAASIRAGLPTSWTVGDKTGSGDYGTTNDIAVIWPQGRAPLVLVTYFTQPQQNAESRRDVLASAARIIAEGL

| Compound | TIG MPC4 SHV-5 ec308 (ec308 (SHV-5)) | Ki (CTX-M-14) | Ki (KPC-2) | BPM MPC1 KP1004 KPC-2 (KP1004 (KPC-2) [2]) | AZT MPC4 TEM-10 ec302 (ec302 (TEM-10) [3]) | AZT MPC4 CMY-6 EC1010 (EC1010 (CMY-6) [4]) | TIG MPC4 CTX-M-15 KP1009 (KP1009 (CTX-M-15) [5]) | TIG MPC4 CTX-M-14 KP1005 (KP1005 (CTX-M-14) [6]) | AZT MPC4 CTX-M-15 KP1009 (KP1009 (CTX-M-15) [7]) | BPM MPC1 OXA-48 KP1086 (KP1086 (OXA-48)) | Ki (OXA-48) | Ki (Pa AmpC) | Ki (P99) | TIG MPC4 ECL1002 (ECL1002 [8]) | TIG MPC4 TEM-10 ec302 (ec302 (TEM-10) [9]) | TIG MPC4 SHV-12 KP1010 (KP1010 (SHV-12)) | Ki (SHV-12) | AZT MPC4 ECL1002 (ECL1002 [10]) | TIG MPC4 CMY-6 EC1010 (EC1010 (CMY-6) [11]) | AZT MPC4 KPC-2 KP1004 (KP1004 (KPC-2) [12]) | also measured |
| --- | --- | --- | --- | --- | --- | --- | --- | --- | --- | --- | --- | --- | --- | --- | --- | --- | --- | --- | --- | --- | --- |
| Nc1nnc(C(=O)N[C@H]2Cc3ccc(F)c(C(=O)O)c3OB2O)s1 [Compound 8, (R)-3-(5-amino-1,3,4-thiadiazole-2-carboxamido)-7-fluoro-2-hydroxy-3,4-dihydro-2H-benzo[e][1,2]oxaborinine-8-carboxylic acid] | X (key: X: MIC of less than 1 μg/mL; Y: MIC of 1 μg/mL to 10 μg/mL; Z: MIC of greater than 10 μg/mL) | < 1 nM | > 10 nM | X (MIC of less than 1 μg/mL) | Y (MIC of 1 μg/mL to 10 μg/mL) | Y (key: X: MIC of less than 1 ng/mL; Y: MIC of 1 μg/mL to 10 μg/mL; Z: MIC of greater than 10 μg/mL) | Y (MIC of 1 μg/mL to 10 μg/mL) | Y (MIC of 1 μg/mL to 10 μg/mL) | Y (key: X: MIC of less than 1 ng/mL; Y: MIC of 1 μg/mL to 10 μg/mL; Z: MIC of greater than 10 μg/mL) | Y (MIC of 1 μg/mL to 10 μg/mL) | < 1 nM | > 10 nM | > 10 nM | Y (MIC of 1 μg/mL to 10 μg/mL) | Y (key: X: MIC of less than 1 ng/mL; Y: MIC of 1 μg/mL to 10 μg/mL; Z: MIC of greater than 10 μg/mL) | X (key: X: MIC of less than 1 μg/mL; Y: MIC of 1 μg/mL to 10 μg/mL; Z: MIC of greater than 10 μg/mL) | < 1 nM | Y (MIC of 1 μg/mL to 10 μg/mL) | X (MIC of less than 1 μg/mL) | Y (MIC of 1 μg/mL to 10 μg/mL) | AZT MPC4 CTX-M-14 KP1005 (KP1005 (CTX-M-14) [1]): Y (MIC of 1 μg/mL to 10 μg/mL) |
| CSCC(=O)N[C@H]1Cc2ccc(SCCO)c(C(=O)O)c2OB1O [Compound 23, (R)-2-hydroxy-7-(2-hydroxyethylthio)-3-(2-(methylthio)acetamido)-3,4-dihydro-2H-benzo[e][1,2]oxaborinine-8-carboxylic acid] | X (key: X: MIC of less than 1 μg/mL; Y: MIC of 1 μg/mL to 10 μg/mL; Z: MIC of greater than 10 μg/mL) | < 1 nM | > 10 nM | X (MIC of less than 1 μg/mL) | Y (MIC of 1 μg/mL to 10 μg/mL) | Y (key: X: MIC of less than 1 ng/mL; Y: MIC of 1 μg/mL to 10 μg/mL; Z: MIC of greater than 10 μg/mL) | Y (MIC of 1 μg/mL to 10 μg/mL) | X (MIC of less than 1 μg/mL) | Y (key: X: MIC of less than 1 ng/mL; Y: MIC of 1 μg/mL to 10 μg/mL; Z: MIC of greater than 10 μg/mL) | Z (MIC of greater than 10 μg/mL) | < 1 nM | > 10 nM | > 10 nM | X (MIC of less than 1 μg/mL) | Y (key: X: MIC of less than 1 ng/mL; Y: MIC of 1 μg/mL to 10 μg/mL; Z: MIC of greater than 10 μg/mL) | X (key: X: MIC of less than 1 μg/mL; Y: MIC of 1 μg/mL to 10 μg/mL; Z: MIC of greater than 10 μg/mL) | < 1 nM | Y (MIC of 1 μg/mL to 10 μg/mL) | Y (MIC of 1 μg/mL to 10 μg/mL) | Y (MIC of 1 μg/mL to 10 μg/mL) | – |
| COc1ccc2c(c1C(=O)O)OB(O)[C@@H](NC(=O)c1nnc(N)s1)C2 [Compound 28, (R)-3-(5-amino-1,3,4-thiadiazole-2-carboxamido)-2-hydroxy-7-methoxy-3,4-dihydro-2H-benzo[e][1,2]oxaborinine-8-carboxylic acid] | X (key: X: MIC of less than 1 μg/mL; Y: MIC of 1 μg/mL to 10 μg/mL; Z: MIC of greater than 10 μg/mL) | < 1 nM | > 10 nM | Y (MIC of 1 μg/mL to 10 μg/mL) | Y (MIC of 1 μg/mL to 10 μg/mL) | – | Y (MIC of 1 μg/mL to 10 μg/mL) | Y (MIC of 1 μg/mL to 10 μg/mL) | Y (key: X: MIC of less than 1 ng/mL; Y: MIC of 1 μg/mL to 10 μg/mL; Z: MIC of greater than 10 μg/mL) | Z (MIC of greater than 10 μg/mL) | < 1 nM | 1 to 10 nM | 1 to 10 nM | Y (MIC of 1 μg/mL to 10 μg/mL) | Y (key: X: MIC of less than 1 ng/mL; Y: MIC of 1 μg/mL to 10 μg/mL; Z: MIC of greater than 10 μg/mL) | X (key: X: MIC of less than 1 μg/mL; Y: MIC of 1 μg/mL to 10 μg/mL; Z: MIC of greater than 10 μg/mL) | < 1 nM | Y (MIC of 1 μg/mL to 10 μg/mL) | X (MIC of less than 1 μg/mL) | Y (MIC of 1 μg/mL to 10 μg/mL) | AZT MPC4 CTX-M-14 KP1005 (KP1005 (CTX-M-14) [1]): Y (MIC of 1 μg/mL to 10 μg/mL) |
| CSCC(=O)N[C@H]1Cc2ccc(O)c(C(=O)O)c2OB1O [Compound 34, (R)-2,7-dihydroxy-3-(2-(methylthio)acetamido)-3,4-dihydro-2H-benzo[e][1,2]oxaborinine-8-carboxylic acid] | X (key: X: MIC of less than 1 μg/mL; Y: MIC of 1 μg/mL to 10 μg/mL; Z: MIC of greater than 10 μg/mL) | < 1 nM | > 10 nM | X (MIC of less than 1 μg/mL) | Y (MIC of 1 μg/mL to 10 μg/mL) | Y (key: X: MIC of less than 1 ng/mL; Y: MIC of 1 μg/mL to 10 μg/mL; Z: MIC of greater than 10 μg/mL) | Y (MIC of 1 μg/mL to 10 μg/mL) | X (MIC of less than 1 μg/mL) | Y (key: X: MIC of less than 1 ng/mL; Y: MIC of 1 μg/mL to 10 μg/mL; Z: MIC of greater than 10 μg/mL) | Y (MIC of 1 μg/mL to 10 μg/mL) | < 1 nM | > 10 nM | 1 to 10 nM | X (MIC of less than 1 μg/mL) | Y (key: X: MIC of less than 1 ng/mL; Y: MIC of 1 μg/mL to 10 μg/mL; Z: MIC of greater than 10 μg/mL) | X (key: X: MIC of less than 1 μg/mL; Y: MIC of 1 μg/mL to 10 μg/mL; Z: MIC of greater than 10 μg/mL) | < 1 nM | Y (MIC of 1 μg/mL to 10 μg/mL) | X (MIC of less than 1 μg/mL) | Y (MIC of 1 μg/mL to 10 μg/mL) | – |
